In article PMC9491098, “Discovery of novel drug-like antitubercular hits targeting the MEP pathway enzyme DXPS by strategic application of ligand-based virtual screening” (Chemical Science, 2022):
≈ marks a conversion by molar mass, not a printed value. Where “and” joins values, the source holds several entries; their conditions need not be identical. Equal entries are not always repeated. Where two headings read alike, the source gives them in different places.

Experiments:
HepG2 = test: toxicity against human cell lines; type: cell-based; settings: HepG2, 48 h, read-out: Toxicity Human cell lines EC50 (μM) HepG2
E. coli TolC = test: microbe, parasite or virus in culture; type: cell-based; settings: Escherichia coli
DrDXPS (WT) = DrDXPS (WT) (Deinococcus radiodurans, UniProt Q9RUB5); test: biochemical; type: biochemical; settings: IC50, Fig. 5F/G, DrDXPS (WT)
Sequence of DrDXPS (WT) (Q9RUB5 whole entry, looked up): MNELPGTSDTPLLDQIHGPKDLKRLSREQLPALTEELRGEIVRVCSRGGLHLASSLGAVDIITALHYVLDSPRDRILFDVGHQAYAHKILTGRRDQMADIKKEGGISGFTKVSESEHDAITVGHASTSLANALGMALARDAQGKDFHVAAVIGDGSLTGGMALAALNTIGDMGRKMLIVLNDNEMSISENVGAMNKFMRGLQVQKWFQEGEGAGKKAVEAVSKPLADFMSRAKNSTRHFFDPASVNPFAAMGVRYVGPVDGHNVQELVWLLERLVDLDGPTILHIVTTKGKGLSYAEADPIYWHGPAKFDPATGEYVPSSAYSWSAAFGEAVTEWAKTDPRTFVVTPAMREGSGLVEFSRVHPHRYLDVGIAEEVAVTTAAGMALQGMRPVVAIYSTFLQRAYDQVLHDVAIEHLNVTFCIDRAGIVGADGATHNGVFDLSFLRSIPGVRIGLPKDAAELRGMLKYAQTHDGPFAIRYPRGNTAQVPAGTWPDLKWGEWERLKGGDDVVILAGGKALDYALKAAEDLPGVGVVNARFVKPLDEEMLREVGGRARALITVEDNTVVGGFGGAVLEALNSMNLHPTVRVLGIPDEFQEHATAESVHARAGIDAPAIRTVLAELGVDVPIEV

MtDXPS [1] = molecular target: T1, MtDXPS (Mycobacterium tuberculosis, UniProt P9WNS3); test: microscale thermophoresis (MST) dissociation constant; type: binding; settings: Fig. 4F
T1 sequence (P9WNS3 whole entry, looked up): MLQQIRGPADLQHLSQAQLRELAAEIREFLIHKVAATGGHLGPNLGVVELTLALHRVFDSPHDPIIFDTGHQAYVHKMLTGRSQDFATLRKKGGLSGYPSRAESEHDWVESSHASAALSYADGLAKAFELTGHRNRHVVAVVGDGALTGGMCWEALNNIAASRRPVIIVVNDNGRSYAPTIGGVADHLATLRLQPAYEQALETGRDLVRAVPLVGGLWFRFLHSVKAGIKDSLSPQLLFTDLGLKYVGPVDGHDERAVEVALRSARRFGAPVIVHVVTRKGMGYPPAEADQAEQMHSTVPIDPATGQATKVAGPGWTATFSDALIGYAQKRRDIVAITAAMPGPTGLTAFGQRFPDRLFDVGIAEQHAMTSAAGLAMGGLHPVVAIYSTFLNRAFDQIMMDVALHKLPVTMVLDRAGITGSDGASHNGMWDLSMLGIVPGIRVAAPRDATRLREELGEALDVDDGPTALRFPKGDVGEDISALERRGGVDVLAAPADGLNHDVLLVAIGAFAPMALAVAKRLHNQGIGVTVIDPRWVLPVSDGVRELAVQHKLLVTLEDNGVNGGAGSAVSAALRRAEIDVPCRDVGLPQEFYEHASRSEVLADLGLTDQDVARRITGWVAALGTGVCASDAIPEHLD
Protocol: ETB + A <===> ETAB : Ka2 (Ka2 is the dissociation constant of pyruvate with […]
ETA + B <===> ETAB : Kb2 (Kb2 is the dissociation constant of ThDP with DXPS) E + I <===> EI* : Ki* (Ki* is the Morrison inhibition constant of inhibitor with apoDXPS) ETAB ---> ET + P : kcat (kcat is the catalytic constant of DXPS) […]
microscale thermophoresis (MST)
MST measurements were performed on a Monolith NT.115 (NanoTemper
Technologies GmbH, Germany) instrument using red-dye-NHS fluorescent labeling.
Each purified MtDXPS sample was labeled with red-dye-NHS second generation dye, according to the supplied protocol. Measurements were performed in 100 m M Tris-HCl (pH 7.6) containing 0.05% Tween-20 and 5% DMSO in premium treated capillaries.
The final concentration of each labeled protein in the assay was 100 n M. The inhibitors were titrated in 1:1 dilutions according to the supplier’s recommendations. All binding reactions were incubated at room temperature for 30 min before loading, and then pre-incubated for 5 min at room temperature after loading into the capillaries. Experiments were performed in duplicates, using 40% LED power, medium MST power, laser on time 20 s, and laser off time 3 s. Kds of the inhibitors were extracted from raw data at a 10–20 s on time according to the manufacturer’s instructions. A denaturation test was performed to exclude any nonspecific spectral interactions between the inhibitors […]
The solutions were vortexed, and then the rest of the assay components was added in the following order: HEPES, pH = 8 (100 m M), bovine serum albumin (1 mg/mL), cysteine (2 mM), ThDP (0.325 μM), coenzyme-A (150 μM), TCEP (300 μM), pyruvate (150 μM) and MgCl2 (1 mM). […] Porcine PDH (final concentration of 0.01 U/ mL) was then added to initiate the reactions, which were monitored spectrophotometrically by measuring the […]

MtDXPS [2] = molecular target: T1, MtDXPS
MtDXPS [3] = molecular target: T1, MtDXPS; test: biochemical; settings: for mode of inhibition on MtDXPS: MOI study, comparison of IC50 under varied [ThDP], [PYR], [D-GAP]; for equilibration time (slow-binding): time-dependent progress curves, Fig. 4A, inhibitor 100 µM
MtDXPS [4] = molecular target: T1, MtDXPS; test: biochemical
[5] = tested on: E. coli strain BL21 (DE3) pET22b-H6[…]; test: microbe, parasite or virus in culture; type: cell-based; settings: Escherichia coli, Fig. 6B
[6] = metabolic stability in human liver S9 fraction; settings: pooled liver S9 fraction
Protocol: For vitro assessment of metabolic stability, 10 µL of each compound (10 µM) was
incubated with human pooled liver S9-fraction (1 mg/mL, Corning, Corning, NY, USA)
in a master mix containing 2 mM NADP, 10 mM glucose-6-phosphate, 10 U/mL
glucose-6-phosphate dehydrogenase, 1 mM UDPGA, 0.1 mM PAPS, 10 mM MgCl2.
acetonitrile containing diphenhydramine as internal standard at 4 °C. The supernatant
was used for LC-MS analysis and half life time t1/2 was calculated from decreasing
concentrations/peak areas.
LC conditions: samples were analyzed with an Ultimate 3000 HPLC (Thermo Fisher,
Waltham, MA, USA) coupled to a TSQ Quantum Access Max triple quadrupole mass
spectrometer (Thermo Fisher, Waltham, MA, USA) in SRM mode. Analysis was
performed on a Nucleodur C18 Pyramid column (3 µm, 2x150 mm, Macherey-Nagel,
Düren, Germany) with a flow of 0.6 mL/min and a water (0.1% formic acid) and
acetonitrile (0.1% formic acid) eluent system. Gradient as follows: 10% acetonitrile for
1 min, 10–90% acetonitrile over 0.7 min, 90% acetonitrile for 1.8 min, equilibration at
10% acetonitrile for 1 min.
MS conditions: calibration of mass spectrometer parameters was performed
individually for each compound:

M. tuberculosis strains = test: MIC against multiple M. tuberculosis strains, absolute concentration method on 7H10 agar; type: cell-based; settings: Mycobacterium tuberculosis
A549 = test: toxicity against human cell lines; type: cell-based; settings: A549, 48 h, read-out: Toxicity Human cell lines EC50 (μM) A549
zebrafish larvae = test: toxicity against zebrafish larvae; type: in vivo; settings: Table S4, 10 larvae per condition
[7] = tested on: E. coli strain BL21 (DE3) pQEYAEM; test: microbe, parasite or virus in culture; type: cell-based; settings: Escherichia coli, Fig. 6A
HEK293 = test: toxicity against human cell lines; type: cell-based; settings: HEK293, 48 h, read-out: Toxicity Human cell lines EC50 (μM) HEK293
[8] = [ThDP] 0.1 μM (1.6x Km), [PYR] 0.5 mM (2.4x), [D-GAP] […] (1.5x)
[9] = [ThDP] 0.1 μM (1.6x Km), [PYR] […] (1.2x), [D-GAP] 0.5 mM (2.9x)
[10] = [ThDP] 0.1 μM (1.6x Km), [PYR] […] (1.2x), [D-GAP] […] (1.5x)
[11] = [ThDP] 0.2 μM (3.2x Km), [PYR] […] (1.2x), [D-GAP] […] (1.5x)
[12] = Morrison constant Ki* against MtDXPS, two-step tight-binding Morrison model, Dynafit, text and Fig. 4C–E
[13] = [IPTG] 0.5 mM (MtDXPS overexpression)
[14] = read-out: Antitubercular activity Strain & MIC (μM) A
[15] = read-out: Antitubercular activity Strain & MIC (μM) B
[16] = read-out: Antitubercular activity Strain & MIC (μM) C
[17] = read-out: Antitubercular activity Strain & MIC (μM) D
[18] = read-out: Antitubercular activity Strain & MIC (μM) E
[19] = read-out: Antitubercular activity Strain & MIC (μM) F
[20] = susceptible, DR, MDR and XDR strains, read-out: antitubercular activity (MIC) against multiple M. tuberculosis strains
[21] = [IPTG] 0.5 mM (E. coli IspC overexpression)

In the case of `ON=C(Cc1ccc(Cl)cc1)c1ccc(O)cc1O` [Compound 9], the EC50 (HepG2) is reported as greater than 50 µM, the MIC (E. coli TolC) is reported as 21.9 ± 1.3 µM (≈ 6.08 µg/mL) and the IC50 (DrDXPS (WT); [8]) is reported as 59 ± 10 µM. It also gave an IC50 (DrDXPS (WT); [9]) of 70 ± 11 µM, an IC50 (DrDXPS (WT); [10]) of 33 ± 4 µM and an IC50 (DrDXPS (WT); [11]) of 54 ± 7 µM. For the same compound, the Kd (MtDXPS [1]) was 0.221 µM and 0.2 µM, the “hit validation (false-positive check)” value (MtDXPS [2]) was “true inhibitors” and the IC50 (MtDXPS [3]; IC50 (μM)) was 44 ± 8 µM. The IC50 (MtDXPS [3]; IC50 against MtDXPS) was 140 ± 12 µM, the IC50 (MtDXPS [3]; IC50 against MtDXPS (MOI study)) was 17 µM and 35 µM and 58 µM and 121 µM and the “mode of inhibition on MtDXPS” value (MtDXPS [3]) was “competitive with ThDP and both substrates”. For the same compound, the “equilibration time (slow-binding)” value (MtDXPS [3]) was roughly 100 s, the Ki (MtDXPS [4]; K i* (μM), Table 1B, oxime derivatives, MtDXPS) was 0.3 ± 0.02 µM and the Ki (MtDXPS [4]; [12]) was 0.271 µM and 0.2 to 0.3 µM. For the same compound, the MIC ([5]; [IPTG] 0 mM) was 15 ± 1 µM (≈ 4.17 µg/mL), the MIC [5, 13] was greater than 200 µM and the half-life at 10 µM [6] was 20 min. For the same compound, the MIC (M. tuberculosis strains; [14]) was 10 µM (≈ 2.78 µg/mL), the MIC (M. tuberculosis strains; [15]) was 10 µM (≈ 2.78 µg/mL) and the MIC (M. tuberculosis strains; [16]) was 10 µM (≈ 2.78 µg/mL). For the same compound, the MIC (M. tuberculosis strains; [17]) was 10 µM (≈ 2.78 µg/mL), the MIC (M. tuberculosis strains; [18]) was 10 µM (≈ 2.78 µg/mL) and the MIC (M. tuberculosis strains; [19]) was 5 to 10 µM (≈ 1.39 to 2.78 µg/mL). The MIC (M. tuberculosis strains; [20]) was 5 to 10 µM (≈ 1.39 to 2.78 µg/mL), the EC50 (A549) was greater than 50 µM and the “number of living zebrafish larvae” value (zebrafish larvae; 2 µM, 24 h (2 dpf)) was 10. For the same compound, the “number of living zebrafish larvae” value (zebrafish larvae; 2 µM, 48 h (3 dpf)) was 10, the “number of living zebrafish larvae” value (zebrafish larvae; 2 µM, 72 h (4 dpf)) was 10 and the “number of living zebrafish larvae” value (zebrafish larvae; 2 µM, 96 h (5 dpf)) was 10. The “number of living zebrafish larvae” value (zebrafish larvae; 10 µM, 24 h (2 dpf)) was 10, the “number of living zebrafish larvae” value (zebrafish larvae; 10 µM, 48 h (3 dpf)) was 10 and the “number of living zebrafish larvae” value (zebrafish larvae; 10 µM, 72 h (4 dpf)) was 10. The “number of living zebrafish larvae” value (zebrafish larvae; 10 µM, 96 h (5 dpf)) was 10, the “number of living zebrafish larvae” value (zebrafish larvae; 30 µM, 24 h (2 dpf)) was 10 and the “number of living zebrafish larvae” value (zebrafish larvae; 30 µM, 48 h (3 dpf)) was 10. The “number of living zebrafish larvae” value (zebrafish larvae; 30 µM, 72 h (4 dpf)) was 10, the “number of living zebrafish larvae” value (zebrafish larvae; 30 µM, 96 h (5 dpf)) was 10 and the “number of living zebrafish larvae” value (zebrafish larvae; 100 µM, 24 h (2 dpf)) was 5. For the same compound, the “number of living zebrafish larvae” value (zebrafish larvae; 100 µM, 48 h (3 dpf)) was 2, the “number of living zebrafish larvae” value (zebrafish larvae; 100 µM, 72 h (4 dpf)) was 0 and the “number of living zebrafish larvae” value (zebrafish larvae; 100 µM, 96 h (5 dpf)) was 0. It also gave an MIC ([7]; [IPTG] 0 mM) of 12 ± 3 µM (≈ 3.33 µg/mL), an MIC [7, 21] of 10 ± 1 µM (≈ 2.78 µg/mL) and an EC50 (HEK293) greater than 50 µM.
Compound `Cc1nc(N)sc1-c1csc(Nc2ccc(C(F)(F)F)cc2)n1` [Compound 10] has an EC50 (HepG2) greater than 50 µM, an MIC (E. coli TolC) of 22.2 ± 3.1 µM (≈ 7.91 µg/mL) and an IC50 (DrDXPS (WT); [8]) of 108 ± 20 µM. It also gave an IC50 (DrDXPS (WT); [9]) of 132 ± 22 µM, an IC50 (DrDXPS (WT); [10]) of 60 ± 11 µM and an IC50 (DrDXPS (WT); [11]) of 81 ± 12 µM. The Kd (MtDXPS [1]) was 0.206 µM and 0.2 µM, the “hit validation (false-positive check)” value (MtDXPS [2]) was “true inhibitors” and the IC50 (MtDXPS [3]; IC50 (μM)) was 32 ± 3 µM. The IC50 (MtDXPS [3]; IC50 against MtDXPS) was 118 ± 10 µM, the “mode of inhibition on MtDXPS” value (MtDXPS [3]) was “competitive with ThDP and both substrates” and the “equilibration time (slow-binding)” value (MtDXPS [3]) was roughly 100 s. The Ki (MtDXPS [4]; K i* (μM), Table 1C, aminothiazole derivatives, MtDXPS) was 0.2 ± 0.02 µM, the Ki (MtDXPS [4]; [12]) was 0.212 µM and 0.2 to 0.3 µM and the MIC ([5]; [IPTG] 0 mM) was 13 ± 1 µM (≈ 4.63 µg/mL). It also gave an MIC [5, 13] of 35 ± 3 µM (≈ 12.5 µg/mL), a half-life at 10 µM [6] greater than 60 min and an MIC (M. tuberculosis strains; [14]) greater than 10 µM. The MIC (M. tuberculosis strains; [15]) was 5 µM (≈ 1.78 µg/mL), the MIC (M. tuberculosis strains; [16]) was 5 µM (≈ 1.78 µg/mL) and the MIC (M. tuberculosis strains; [17]) was 10 µM (≈ 3.56 µg/mL). For the same compound, the MIC (M. tuberculosis strains; [18]) was 5 to 10 µM (≈ 1.78 to 3.56 µg/mL), the MIC (M. tuberculosis strains; [19]) was 5 to 10 µM (≈ 1.78 to 3.56 µg/mL) and the MIC (M. tuberculosis strains; [20]) was 5 to 10 µM (≈ 1.78 to 3.56 µg/mL). The EC50 (A549) was greater than 50 µM, the “number of living zebrafish larvae” value (zebrafish larvae; 2 µM, 24 h (2 dpf)) was 10 and the “number of living zebrafish larvae” value (zebrafish larvae; 2 µM, 48 h (3 dpf)) was 10. For the same compound, the “number of living zebrafish larvae” value (zebrafish larvae; 2 µM, 72 h (4 dpf)) was 10, the “number of living zebrafish larvae” value (zebrafish larvae; 2 µM, 96 h (5 dpf)) was 10 and the “number of living zebrafish larvae” value (zebrafish larvae; 10 µM, 24 h (2 dpf)) was 10. For the same compound, the “number of living zebrafish larvae” value (zebrafish larvae; 10 µM, 48 h (3 dpf)) was 10, the “number of living zebrafish larvae” value (zebrafish larvae; 10 µM, 72 h (4 dpf)) was 10 and the “number of living zebrafish larvae” value (zebrafish larvae; 10 µM, 96 h (5 dpf)) was 10. The “number of living zebrafish larvae” value (zebrafish larvae; 30 µM, 24 h (2 dpf)) was 2, the “number of living zebrafish larvae” value (zebrafish larvae; 30 µM, 48 h (3 dpf)) was 0 and the “number of living zebrafish larvae” value (zebrafish larvae; 30 µM, 72 h (4 dpf)) was 0. For the same compound, the “number of living zebrafish larvae” value (zebrafish larvae; 30 µM, 96 h (5 dpf)) was 0, the “number of living zebrafish larvae” value (zebrafish larvae; 100 µM, 24 h (2 dpf)) was 0 and the “number of living zebrafish larvae” value (zebrafish larvae; 100 µM, 48 h (3 dpf)) was 0. For the same compound, the “number of living zebrafish larvae” value (zebrafish larvae; 100 µM, 72 h (4 dpf)) was 0, the “number of living zebrafish larvae” value (zebrafish larvae; 100 µM, 96 h (5 dpf)) was 0 and the MIC ([7]; [IPTG] 0 mM) was 15 ± 3 µM (≈ 5.35 µg/mL). The MIC [7, 21] was 17 ± 2 µM (≈ 6.06 µg/mL) and the EC50 (HEK293) was 25 to 50 µM.
